Several values for one entry are separate records, joined by “and”; a condition that tells them apart may be missing. Equal values may be shown once.

These results are taken from patent US4883801A, “Xanthine derivative pest control agents” (priority 1986, dated 1989).

For data set [1], the system named is larvae of Manduca sexta (tobacco hornworm). The experiment in a line: Feeding on artificial media containing the test material. Conditions: concentrations found naturally in undried tea leaves or coffee beans. The data set is classed as in vivo. The protocol: Various concentrations of finely powdered tea leaves or powdered coffee beans were mixed in artificial media which was then plated out in small petri dishes and allowed to harden. […] At concentrations greater than 10% (for coffee) or 3% (for tea), larvae were killed within 24 hours.
The larvae of Manduca sexta were fed on either artificial or natural food. When added to artificial media, caffeine (the major methylxanthine found in tea and coffee) exerted behavioral effects that were qualitatively similar to those of the tea and coffee described above. […] Further, the dried tea leaves, which contain 2-3 times the caffeine content of dried coffee beans, were about 2-3 times as effective as coffee beans in inhibiting weight gain. Further, the concentrations of caffeine which are found naturally in undried tea leaves (0.68-2.1%) or coffee beans (0.8-1.8%) were sufficient to kill most Manduca larvae. Thus, caffeine functions as an endogenous insecticide.

Data set [2] concerns hornworm nerve cord PDE (cyclic AMP phosphodiesterase). The experiment in a line: Inhibition of cyclic AMP phosphodiesterase activity in homogenates of tobacco hornworm nerve cord. It is filed as biochemical, Manduca sexta. Conditions: for activity of structurally similar compounds tested as described in Example 46: Example 47. The protocol:
Nerve cord was dissected from 40-60 mm long M. sexta larvae, cleaned, and homogenized (2 mg/ml) in 6 Mm Tris-maleate, pH 7.4. PDE activity was measured (4 min. incubation at 30° C.) in an assay system (0.1 ml) containing 80 mM Tris-maleate, pH 7.4; 6 mM Mg--SO4; 10^-7 M^3 H-cyclic AMP; and tissue homogenate (0.02 ml). Nerve cord was evaluated in the presence and the absence of the xanthine derivative. For purposes of the evaluation, the rate of formation of ^3 H-5' AMP was measured using the technique described in Filburn, C. […] The values shown in FIG. 1D are the mean (±SEM) of three separate experiments.

Data set [3] has as its system Callosobrucaus chinensis. Conditions: concentration of 1.5%; cited from earlier work.
Data set [4] has as its system adenosine receptor. Conditions: Bruns et al.; cited from earlier work.
The subject of data set [5] is Manduca sexta (tobacco hornworm) larvae. The experiment in a line: Antifeeding test: tomato leaves sprayed with compound, tobacco hornworm larvae. It is filed as in vivo.
Data set [6] relates to light organ octopamine-stimulated adenylate cyclase. Conditions: cited from earlier work.
The test system of data set [7] is Tribolium confusum (flower beetle) adults. Kind of data set: Tribolium confusum adults: acute effect and chronic reproduction test. It is filed as in vivo.
In data set [8] the test system is Culex (mosquito) larvae. The experiment in a line: Killing of Culex larvae in solution. The data set is classed as in vivo.
Data set [9] deals with Tribolium castaneum (flower beetle) adults. Kind of data set: Tribolium castaneum adults: acute effect and chronic reproduction test. It is filed as in vivo.
Data set [10] is described as follows: Tissue level of theophylline in larvae after feeding on sprayed leaves (immunoenzymatic assay). It is filed as in vivo, Manduca sexta. Conditions: 1% spray, three days of feeding; mean ± deviation, two groups of six pooled animals; 4320 min; read-out: internal theophylline concentration of larvae. The protocol: To determine if the dosage of xanthine derivatives described in experiments 4, 7 and 8-11 and ingested by the larvae (causing pestistatic and pesticidal activity in vivo) were actually absorbed by the animals and were sufficient to inhibit PDE in vitro, additional experiments were carried out in order to estimate tissue levels of xanthine derivative following three days of feeding on various doses of the derivative. Groups of six larvae were placed on leaves treated with vehicle or theophylline spray. After three days, leaf area was recorded and larvae (alive or dead) were rinsed to remove any compound adhering to their cuticle, homogenized whole, centrifuged, and the cell-free supernatant assayed for theophylline content by immunoenzymatic assay (Emit-AAD theophylline assay (Syva Company, Palo Alto, CA.)). […] From mammalian studies, it is known that theophylline penetrates freely into all body compartments (Rall, T. W., supra.). […] This observation tends to rule out the hypothesis wherein adenosine receptors are involved as a mechanism for the antifeeding effects of the xanthine derivatives, since, in vertebrates, xanthine derivatives such as theophylline are competitive adenosine receptor antagonists, but exert such antagonism at much lower concentrations, typically 1-25 micromoles. […]

The mark [11] stands for this setting: highest dose usually a 3% spray solution.
[12] abbreviates: spray on tomato leaves, calculated from dose-response curves, Manduca sexta 6 per leaf.

For `Cn1c(=O)c2c(ncn2C)n(C)c1=O` [Example 23, 1,3,7-trimethyl-xanthine (caffeine)], in data set [1], the “concentrations sufficient to kill most Manduca larvae” value is 0.68-2.1% and 0.8-1.8%. Besides, the “activity of structurally similar compounds tested as described in Example 46” value in data set [2] is reported as “active”. In addition, the “PDE inhibition (in words)” value in [2] (FIG. 1D) was “about equally potent”. In [3], the sterility was around 100%. Further, the “weaker than theophylline as an adenosine antagonist” value in [4] is listed as 10 fold. For the same compound, in [5] (in vivo), the “EC50 (spray concentration required to cause 50% inhibition of feeding)” value worked out at 0.3, the “Vmax (percent inhibition of feeding at the highest dose used)” value came to 98 and the “antifeeding effect (in words)” value is listed as “somewhat more potent than theophylline”.
In the case of `CNC=Nc1ccc(Cl)cc1C` [DCDM, N-demethylchlordimeform], in [6], the “potency as partial agonist relative to octopamine” value is listed as “about six-fold more potent than octopamine”.
As for `CC(C)Cn1c(=O)n(C)c(=O)c2[nH]cnc21` [Example 20, 1-methyl,3-isobutyl-xanthine], the “EC50, inhibition of reproduction” value in data set [7] (chronic tests) and in data set [9] (chronic tests) was 0.2% throughout. For the same compound, the effect on adults result in data set [7] (doses up to 3%) and in data set [9] (doses up to 3%) was “unaffected” in each case. Further, the “EC50, killing of larvae” value in data set [8] is 0.007%. For the same compound, in data set [2], the “potency in PDE inhibition relative to theophylline” value is “about 10 fold”. For the same compound, the “potency in blocking adenosine receptors compared with theophylline (in words)” value in [4] is “roughly equally potent”. Also, in data set [5] (Example 13), the “antifeeding effects in the presence of diltiazem and procaine” value was “neither reversing the observed antifeeding effects”. In addition, the “pestistatic and pesticidal effects in the presence of D600, verapamil, and nimodipine” value in [5] (Example 14) is on record as “appeared unaffected”. The “Vmax (percent inhibition of feeding at the highest dose used)” value in data set [5] (setting [11]) was 95%. Moreover, in [5] (in vivo), the “potency in disruption of feeding relative to theophylline” value is on record as “about 10 fold”. Further, the “EC50 (spray concentration required to cause 50% inhibition of feeding)” value in data set [5] (setting [12]) is 0.3 % (gm/100 ml).
Take `Cn1c(=O)c2[nH]cnc2n(C)c1=O` [Example 15, 1,3-dimethyl-xanthine (theophylline), reference compound]: the concentration in data set [10] amounted to 4100 ± 1100 µM. Also, in [2], the “activity of structurally similar compounds tested as described in Example 46” value was “active”. For the same compound, the “inhibition of hornworm nerve cord PDE activity in vitro” value in data set [2] (at the internal concentration found (4.1 mM)) is on record as above 80%. The “inhibition of leaf consumption” value in data set [5] (1% spray, three days) is “about 50%”. For the same compound, the “Vmax (percent inhibition of feeding at the highest dose used)” value in [5] (setting [11]) came to 94%. Moreover, in data set [5] (setting [12]), the “EC50 (spray concentration required to cause 50% inhibition of feeding)” value was 1.5 % (gm/100 ml).
